From patent EP1143955B1, “A COMBINATION OF FBPase INHIBITORS AND INSULIN SENSITIZERS FOR THE TREATMENT OF DIABETES” (priority 1998, dated 2000)
pIC50: −log10 of the molar value.

How the values were obtained:
Rat Hepatocytes [1] = assay: Inhibition of Gluconeogenesis in Rat Hepatocytes (Example C); format: cell-based; conditions: glucose production from 10 mM lactate, 1 mM pyruvate, 1 hour, hepatocytes from fed Sprague-Dawley rats
Method: Hepatocytes (75 mg wet weight/ml) were incubated in 1 ml Krebs-bicarbonate buffer containing 10 mM Lactate, 1 mM pyruvate, 1 mg/ml BSA, and test compound concentrations from 0 to 500 µM. […] After 1 hour, an aliquot (0.25 ml) was removed, transferred to an Eppendorf tube and centrifuged. 50 µl of supernatant was then assayed for glucose content using a Sigma Glucose Oxidase kit as per the manufacturer's instructions.

ZDF rat [2] = assay: Combination treatment with Troglitazone and Compound G or Compound J in the ZDF rat - blood glucose (Example N); format: in vivo, Zucker Diabetic Fatty (ZDF) rat; conditions: for Blood Glucose, mg/dl Day 0: Day 0 (baseline); for Blood Glucose, mg/dl Day 21: Compound J 0.4% food admixture for 21 days
Method: (§1) At 11 weeks of age, animals with blood glucose >500 mg/dl were selected and divided into 4 treatment groups (n=8/group). […] Blood glucose levels were measured in tail vein samples by means of a HemoCue glucose analyzer (HemoCue Inc., Mission Viejo, CA). Values are expressed as the mean plus or minus the standard error of the mean. Differences between groups were evaluated by analysis of variance with the Tukey-Kramer post hoc test.

ZDF rat [3] = assay: Combination treatment in the ZDF rat - plasma triglycerides (Example O); format: in vivo, Zucker Diabetic Fatty (ZDF) rat; conditions: for Plasma Triglycerides, mg/dl (Mean ± SEM): final day of treatment
Description: Results are considered significant with p<0.05.

ZDF rat [4] = assay: Combination treatment in the ZDF rat - plasma insulin (Example P); format: in vivo, Zucker Diabetic Fatty (ZDF) rat; conditions: Troglitazone-Compound G study, final day of treatment
Method: Plasma was prepared by centrifugation and insulin levels then measured by means of an enzyme-linked immunoassay kit according to the instructions of the manufacturer (Amersham Life Sciences). […] Results are considered significant with p<0.05.

db/db mouse [5] = assay: Combination treatment with Troglitazone and Compound G in the db/db mouse - blood glucose (Example S); format: in vivo; conditions: db/db mice, Troglitazone 0.1%, mean ± SEM
Description: Treatment was for 18 days. […] Results are considered significant with p<0.05.

db/db mouse [6] = assay: Combination treatment with Troglitazone and Compound A in the db/db mouse - blood glucose (Example T); format: in vivo, C57BL/KsJ-db/db mice; conditions: for Blood glucose, mg/dl (8 am day 4): fed
Description: Male C57BL/KsJ-db/db mice were obtained from Jackson Laboratories (Bar Harbor, Maine) at 9 weeks of age. […] Group 1 (controls) received powdered Purina 5008 chow alone. […] This dose is reported to elicit the maximal hypoglycemic effect of Troglitazone in this model (Fujiwara et al 1995). […] Results are considered significant with p<0.05.

type 2 diabetics = conditions: most common side-effect; cited from earlier work
human liver FBPase = assay: Inhibition of Human Liver FBPase (Example A); format: biochemical; conditions: […] fructose 1,6-bisphosphate, 37°C
rat liver FBPase = assay: Inhibition of rat liver FBPase (Example B); format: biochemical; conditions: assayed as for human liver FBPase
Method: (§2) Mouse liver FBPase was obtained by homogenizing freshly isolated mouse liver in 100 mM Tris-HCl buffer, pH 7.4, containing 1 mM EGTA, and 10% glycerol. […] This fraction was redissolved in the homogenization buffer and desalted on a PD-10 gel filtration column (Biorad) eluted with same. This partially purified fraction was used for enzyme assays.

Mouse liver FBPase = assay: Inhibition of mouse liver FBPase (Example B); format: biochemical; conditions: partially purified mouse liver FBPase, assayed as for human liver FBPase
Method: as §2

Rat Hepatocytes [7] = assay: Inhibition of glucose production and elevation of fructose-1,6-bisphosphate levels in rat hepatocytes (Example D); format: cell-based; conditions: isolated rat hepatocytes
Method: Hepatocytes were prepared from fed Sprague-Dawley rats (250-300 g) according to the procedure of Berry and Friend (Berry, M.N., Friend, D.S., 1969, J. Cell. Biol. 43, 506-520) as modified by Groen (Groen, A.K., Sips, H.J., Vervoom, R.C., Tager, J.M. , 1982, Eur. J. Biochem. 122, 87-93). Hepatocytes (75 mg wet weight/ml) were incubated in 1 ml Krebs-bicarbonate buffer containing 10 mM Lactate, 1 mM pyruvate, 1 mg/ml BSA, and test compound concentrations from 0 to 500 µM. Incubations were carried out in a 95% oxygen, 5% carbon dioxide atmosphere in closed, 50-ml Falcon tubes submerged in a rapidly shaking water bath (37°C). After 1 hour, an aliquot (0.25 ml) was removed, transferred to an Eppendorf tube and centrifuged. 50 µl of supernatant was then assayed for glucose content using a Sigma Glucose Oxidase kit as per the manufacturer's instructions.
Rat hepatocytes were isolated and incubated as described in Example C. Cell extracts, were analyzed for glucose content as described in Example C, and also for fructose 1,6-bisphosphate. Fructose 1,6-bisphosphate was assayed spectrophotometrically by coupling its enzymatic conversion to glycerol 3-phosphate to the oxidation of NADH, which was monitored at 340 nm. […] After a 30 minute preincubation at 37°C, 1 unit/ml of aldolase was added and the change in absorbance measured until a stable value was obtained. […]

Normal Fasted Rats = assay: Glucose lowering after intraperitoneal administration to normal fasted rats (Example F); format: in vivo; conditions: 18-hour fasted Sprague-Dawley rats, one hour post injection
Method: Sprague-Dawley rats (250-300 g) were fasted for 18 hours and then dosed intraperitoneally either with saline or FBPase inhibitor. The vehicle used for drug administration was 10 mM bicarbonate. One hour post injection, rats were anesthetized with halothane, and liver and blood samples were taken and processed as described in Example E. The neutralized liver extracts were analyzed for FBPase inhibitor content by HPLC. A reverse phase YMC ODS AQ column ([…]) was used and eluted with a gradient from 10 mM sodium phosphate pH 5.5 to 75% acetonitrile. Absorbance was monitored at 310 nm. Glucose was measured in the blood sample as described in Example C. Plasma was prepared by centrifugation and extracted by addition of methanol to 60% (v/v). The methanolic extract was clarified by centrifugation and filtration and then analyzed by HPLC as described above.

[8] = Oral bioavailability determination by the urinary excretion method in the rat (Example G); format: in vivo, Sprague Dawley rats
Method: The oral bioavailability of prodrugs and parent compounds was determined by the urinary excretion method in the rat. Prodrugs were dissolved in 10% ethanol/90% polyethylene glycol (mw 400) and administered by oral gavage at doses of 10 to 40 mg/kg parent compound equivalents to 6-hour fasted, Sprague Dawley rats (220-240 g). Parent compounds were typically dissolved in deionized water, neutralized with sodium hydroxide, and then administered orally at 10-40 mg/kg or intravenously at ~10 mg/kg. The rats were subsequently placed in metabolic cages and urine was collected for 24 hours. The quantity of parent compound excreted into urine was determined by HPLC analysis as described in Example F. Analysis was performed as described in Example F. For prodrugs, the percentage oral bioavailability was estimated by comparison of the recovery in urine of the parent compound generated from the prodrug administered orally, to that recovered in urine following intravenous administration of the corresponding parent compound. For parent compounds, the percentage oral bioavailability was estimated by comparison of the recovery in urine of the parent compound when administered orally to that recovered when administered intravenously.

ZDF rat [9] = assay: Combination treatment in the ZDF rat - blood lactate (Example Q); set-up: species or system Zucker Diabetic Fatty (ZDF) rat; conditions: in vivo
Description: Blood samples were taken from the tail vein on days 0, 3, 7, 10 and 14 of the Troglitazone-Compound G combination study and on days 0,7,14, and 21 of the Troglitazone-Compound J combination study (study protocols are described in Example N).

ZDF rat [10] = assay: Combination treatment with Rosiglitazone and Compound G in the ZDF rat - blood glucose (Example R); format: in vivo, Zucker Diabetic Fatty (ZDF) rat; conditions: Rosiglitazone 0.0045%, Compound G 0.2% food admixture, 25 days
Method: as §1

[11] = Troglitazone-Compound J study, Troglitazone 0.2%, Compound J 0.4% food admixture, mean ± SEM
[12] = Troglitazone-Compound J study, Troglitazone 0.2%, mean ± SEM

Compound: CC(C)Cc1sc(N)nc1-c1ccc(P(=O)(N[C@@H](C)C(=O)OCc2ccccc2)N[C@@H](C)C(=O)OCc2ccccc2)o1 [Compound K, 2-Amino-5-isobutyl-4-[2-(5-N,N-bis(L-alanine acid dibenzyl ester)phosphonoamido)furanyl]thiazole]
- pIC50 (Rat Hepatocytes [1]): 5.68

Compound: Cc1c(C)c2c(c(C)c1O)CCC(C)(COc1ccc(CC3SC(=O)NC3=O)cc1)O2 (centres unmarked) [Troglitazone]
- pIC50 (Rat Hepatocytes [1]; Rattus norvegicus, Hepatocyte): < 4.00
- Blood Glucose, mg/dl Day 0 (ZDF rat [2]; Troglitazone-Compound G study, drugs as 0.2% food admixtures, mean ± SEM, n=8/group): 655 ± 33 mg/dL
- Blood Glucose, mg/dl Day 14 (ZDF rat [2]; Troglitazone-Compound G study, drugs as 0.2% food admixtures for 15 days, mean ± SEM): 431 ± 73 mg/dL
- Blood Glucose, mg/dl Day 0 (ZDF rat [2]; [11]): 669 ± 23 mg/dL
- Blood Glucose, mg/dl Day 21 (ZDF rat [2]; [12]): 514 ± 135 mg/dL
- Plasma Triglycerides, mg/dl (Mean ± SEM) (ZDF rat [3]; Troglitazone-Compound G study): 131 ± 16 mg/dL
- Plasma Triglycerides, mg/dl (Mean ± SEM) (ZDF rat [3]; Troglitazone-Compound J study): 249 ± 60 mg/dL
- Plasma Insulin, ng/ml (Mean ± SEM) (ZDF rat [4]): 3.61 ± 1.03 ng/mL
- Blood Glucose, mg/dl Day 0 (db/db mouse [5]; Day 0 (baseline), Compound G 0.4% food admixture): 710 ± 44 mg/dL
- Blood Glucose, mg/dl Day 18 (db/db mouse [5]; Compound G 0.4% food admixture for 18 days): 509 ± 70 mg/dL
- Blood glucose, mg/dl 2 pm, day 7 (db/db mouse [6]; 6 hours post second dose of Compound A 250 mg/kg (Group 3) or vehicle (Group 2), food withheld): 195 ± 12.1 mg/dL
- Blood glucose, mg/dl (8 am day 4) (db/db mouse [6]; Group 2, Troglitazone 0.1% admixture): 240 ± 21.3 mg/dL
- Blood glucose, mg/dl (8 am day 4) (db/db mouse [6]; Group 3, Troglitazone 0.1% admixture, before the first dose of Compound A): 237.5 ± 18.5 mg/dL
- Blood glucose, mg/dl (5 pm day 4) (db/db mouse [6]; nine hours after single oral dose of Compound A 250 mg/kg (Group 3) or vehicle (Group 2), Troglitazone 0.1% admixture): 232.5 ± 17 mg/dL
- elevation of liver enzymes (hepatotoxicity) (type 2 diabetics): 1 % of patients

Compound: Nc1ncnc2c1ncn2[C@@H]1O[C@H](COP(=O)(O)O)[C@@H](O)[C@H]1O [AMP]
- pIC50 (human liver FBPase): 5.89
- pIC50 (rat liver FBPase): 4.60
- pIC50 (Mouse liver FBPase): 4.82

Compound: CCc1cc(F)c(N)c2nc(-c3ccc(P(=O)(O)O)o3)n(CC(C)C)c12 [Compound E]
- intracellular fructose 1,6-bisphosphate (Rat Hepatocytes [7]): dose-dependent elevation of intracellular fructose 1,6-bisphosphate
- Glucose Lowering, % (Normal Fasted Rats): 44.4%

Compound: CCOC(=O)[C@H](C)NP(=O)(N[C@@H](C)C(=O)OCC)c1ccc(-c2nc(N)sc2CC(C)C)o1 [Compound J, 2-Amino-5-isobutyl-4-{2-[5-(N,N'-bis((S)-1-ethoxycarbonyl)ethyl)phosphonamido]furanyl}thiazole]
- Oral bioavailability, % ([8]; rat, in vivo, po, 24 h): 21%
- Blood Glucose, mg/dl Day 0 (ZDF rat [2]; [11]): 674 ± 20 mg/dL
- Blood Glucose, mg/dl Day 21 (ZDF rat [2]; [12]): 452 ± 40 mg/dL
- blood glucose lowering in pilot studies (dose selection) (ZDF rat [2]; ZDF rat, food admixture, pilot studies): a trend (not significant) towards more pronounced blood glucose lowering at 0.4% than at 0.2%
- Plasma Triglycerides, mg/dl (Mean ± SEM) (ZDF rat [3]; Troglitazone-Compound J study): 759 ± 76 mg/dL
- elevation of plasma triglycerides (ZDF rat [3]; monotherapy vs control, ZDF rat): ~2 fold
- blood lactate typically elevated over baseline (ZDF rat [9]): ~ 2 fold
- maximal blood lactate elevations over baseline (ZDF rat [9]): 3 fold

Compound: CSc1nc(-c2ccc(P(=O)(O)O)o2)c(CC(C)C)s1 [Compound H, 2-Methylthio-5-isobutyl-4-[2-(5-phosphono)furanyl]thiazole]
- pIC50 (rat liver FBPase): 6.76
- Oral bioavailability, % ([8]; estimated, urinary excretion of parent compound over 24 hours, oral 10-40 mg/kg vs intravenous ~10 mg/kg, 6-hour fasted rats): 4%

Compound: CN(CCOc1ccc(CC2SC(=O)NC2=O)cc1)c1ccccn1 (centres unmarked) [Rosiglitazone]
- Responders (rats whose blood glucose levels were lower on day 25 than on day 0) (ZDF rat [10]): 6/10
